Positions count from the first letter of the chain named.
How the values were obtained:
[1] = molecular target: Calcium/calmodulin-dependent protein kinase type II subunit gamma (Homo sapiens) (UniProt Q13555); conditions: at 10 µM
[2] = molecular target: Calcium/calmodulin-dependent protein kinase type 1D (Homo sapiens) (UniProt Q8IU85); assay: Selectivity interaction (Kinase panel (Z-LYTE Assay)) EUB0001632a CAMK1D; conditions: at 10 µM
[3] = tested on: T1, Receptor-type tyrosine-protein kinase FLT3 (Homo sapiens), P36888 [R834Q]; assay: (§1) Selectivity interaction (KinomeScan (DiscoverX)) EUB0000695a FLT3; conditions: at 100 nM
T1 sequence (whole entry): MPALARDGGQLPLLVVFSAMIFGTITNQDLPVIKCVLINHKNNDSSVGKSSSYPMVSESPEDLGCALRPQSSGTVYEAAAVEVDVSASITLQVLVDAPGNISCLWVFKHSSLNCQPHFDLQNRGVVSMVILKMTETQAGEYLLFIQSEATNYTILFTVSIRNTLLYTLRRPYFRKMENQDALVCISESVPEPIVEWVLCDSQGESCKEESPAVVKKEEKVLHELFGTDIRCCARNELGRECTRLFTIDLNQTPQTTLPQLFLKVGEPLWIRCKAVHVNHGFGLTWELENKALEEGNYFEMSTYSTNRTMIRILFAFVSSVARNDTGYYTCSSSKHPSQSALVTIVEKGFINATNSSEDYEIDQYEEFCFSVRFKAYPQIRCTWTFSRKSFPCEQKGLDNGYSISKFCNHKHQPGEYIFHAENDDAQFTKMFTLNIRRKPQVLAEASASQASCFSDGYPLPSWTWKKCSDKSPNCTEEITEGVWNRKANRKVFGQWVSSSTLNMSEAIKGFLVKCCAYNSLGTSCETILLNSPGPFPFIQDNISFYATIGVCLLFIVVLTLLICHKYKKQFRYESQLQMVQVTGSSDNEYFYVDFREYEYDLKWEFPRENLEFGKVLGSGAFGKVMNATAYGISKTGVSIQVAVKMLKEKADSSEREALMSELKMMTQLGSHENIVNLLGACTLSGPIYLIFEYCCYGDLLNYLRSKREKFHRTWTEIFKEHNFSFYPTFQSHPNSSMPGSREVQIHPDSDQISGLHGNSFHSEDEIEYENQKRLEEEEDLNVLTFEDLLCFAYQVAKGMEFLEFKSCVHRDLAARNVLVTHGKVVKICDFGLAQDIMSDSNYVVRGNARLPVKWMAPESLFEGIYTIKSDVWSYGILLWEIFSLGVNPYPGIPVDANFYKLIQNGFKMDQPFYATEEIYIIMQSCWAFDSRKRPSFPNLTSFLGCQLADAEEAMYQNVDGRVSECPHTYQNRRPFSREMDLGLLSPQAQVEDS

[4] = tested on: T2, Receptor-type tyrosine-protein kinase FLT3 (Homo sapiens), P36888 [N841I]; assay: as §1; conditions: at 100 nM
T2 sequence (whole entry): T1 sequence (whole entry) with Q834R, N841I

[5] = molecular target: Dual specificity tyrosine-phosphorylation-regulated kinase 1B (Homo sapiens, UniProt Q9Y463); assay: Selectivity interaction (ProQinase) EUB0000171b DYRK1B
[6] = molecular target: Serine/threonine-protein kinase SIK2 (Homo sapiens) (UniProt Q9H0K1); assay: Selectivity interaction (KinomeScan (DiscoverX)) EUB0000607a SIK2; conditions: at 10 µM
[7] = molecular target: Microtubule-associated serine/threonine-protein kinase 3 (Homo sapiens) (UniProt O60307); assay: Selectivity interaction (Kinase panel (KiNativ target engagement assay in Jurkat cells)) EUB0001635a MAST3; assay type: cell-based; conditions: Selectivity number of off-targets 0.0, Selectivity number of targets 233.0, Source Knowledge https://www.sciencedirect.com/science/article/pii/S2451945619300674?via%3Dihub, at 1 µM
[8] = molecular target: Cyclin-dependent kinase 14 (Homo sapiens) (UniProt O94921); assay: Selectivity interaction (Kinase panel (KiNativ target engagement assay in Jurkat cells)) EUB0001635a CDK14; assay type: cell-based; conditions: at 1 µM
Sequence of Cyclin-dependent kinase 14 (Homo sapiens) (O94921 whole entry): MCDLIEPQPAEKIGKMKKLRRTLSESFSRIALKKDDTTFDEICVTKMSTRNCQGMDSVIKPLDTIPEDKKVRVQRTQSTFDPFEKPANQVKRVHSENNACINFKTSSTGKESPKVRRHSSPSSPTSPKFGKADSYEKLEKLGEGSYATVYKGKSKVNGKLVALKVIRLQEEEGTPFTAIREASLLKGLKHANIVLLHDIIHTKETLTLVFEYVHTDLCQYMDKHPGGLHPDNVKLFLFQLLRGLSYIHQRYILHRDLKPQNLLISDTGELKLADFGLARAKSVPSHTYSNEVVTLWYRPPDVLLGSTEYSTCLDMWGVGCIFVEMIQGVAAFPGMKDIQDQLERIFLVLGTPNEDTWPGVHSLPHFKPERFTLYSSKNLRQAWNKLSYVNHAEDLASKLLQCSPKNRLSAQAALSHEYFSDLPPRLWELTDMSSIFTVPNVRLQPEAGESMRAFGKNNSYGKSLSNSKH

Sequence of Dual specificity tyrosine-phosphorylation-regulated kinase 1B (Q9Y463 whole entry, looked up): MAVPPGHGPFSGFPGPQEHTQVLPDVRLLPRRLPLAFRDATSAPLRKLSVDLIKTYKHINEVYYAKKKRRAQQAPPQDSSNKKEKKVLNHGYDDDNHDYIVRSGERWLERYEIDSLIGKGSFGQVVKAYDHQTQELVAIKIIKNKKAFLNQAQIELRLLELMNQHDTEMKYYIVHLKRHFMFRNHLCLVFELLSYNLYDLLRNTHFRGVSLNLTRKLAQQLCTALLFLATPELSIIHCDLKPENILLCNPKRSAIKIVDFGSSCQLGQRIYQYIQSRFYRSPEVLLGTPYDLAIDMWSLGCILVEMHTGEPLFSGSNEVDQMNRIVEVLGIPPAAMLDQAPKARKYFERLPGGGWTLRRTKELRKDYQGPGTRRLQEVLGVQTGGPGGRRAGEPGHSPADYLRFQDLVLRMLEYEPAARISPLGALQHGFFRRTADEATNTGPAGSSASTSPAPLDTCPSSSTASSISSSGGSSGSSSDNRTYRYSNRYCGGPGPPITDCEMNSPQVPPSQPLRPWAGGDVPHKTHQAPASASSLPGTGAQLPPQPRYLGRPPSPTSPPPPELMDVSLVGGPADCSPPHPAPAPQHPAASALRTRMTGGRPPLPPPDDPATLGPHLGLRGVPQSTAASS
Sequence of Serine/threonine-protein kinase SIK2 (Homo sapiens) (Q9H0K1 whole entry, looked up): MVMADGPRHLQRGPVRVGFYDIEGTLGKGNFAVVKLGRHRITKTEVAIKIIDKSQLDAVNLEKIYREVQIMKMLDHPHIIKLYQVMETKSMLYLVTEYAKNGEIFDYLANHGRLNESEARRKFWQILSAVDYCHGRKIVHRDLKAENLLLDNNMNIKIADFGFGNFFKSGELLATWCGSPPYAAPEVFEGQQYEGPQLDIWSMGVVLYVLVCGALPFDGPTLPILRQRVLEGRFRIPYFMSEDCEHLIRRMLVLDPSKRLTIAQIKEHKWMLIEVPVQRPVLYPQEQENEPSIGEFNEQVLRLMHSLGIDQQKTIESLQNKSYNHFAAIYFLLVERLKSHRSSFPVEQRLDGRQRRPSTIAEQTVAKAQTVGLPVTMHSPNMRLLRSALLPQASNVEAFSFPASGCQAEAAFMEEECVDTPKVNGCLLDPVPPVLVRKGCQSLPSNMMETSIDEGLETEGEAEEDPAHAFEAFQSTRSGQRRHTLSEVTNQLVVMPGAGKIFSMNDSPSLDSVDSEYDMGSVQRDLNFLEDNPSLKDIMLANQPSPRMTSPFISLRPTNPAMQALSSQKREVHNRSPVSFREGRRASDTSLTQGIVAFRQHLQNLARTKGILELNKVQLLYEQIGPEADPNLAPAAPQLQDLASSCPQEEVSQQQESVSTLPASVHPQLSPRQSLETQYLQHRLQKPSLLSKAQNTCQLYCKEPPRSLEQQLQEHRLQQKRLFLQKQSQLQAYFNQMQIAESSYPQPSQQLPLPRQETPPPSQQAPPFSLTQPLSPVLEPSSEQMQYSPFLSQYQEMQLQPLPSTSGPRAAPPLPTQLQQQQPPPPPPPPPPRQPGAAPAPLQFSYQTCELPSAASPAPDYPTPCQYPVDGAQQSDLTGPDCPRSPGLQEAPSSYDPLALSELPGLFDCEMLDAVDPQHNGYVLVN
Sequence of Calcium/calmodulin-dependent protein kinase type 1D (Homo sapiens) (Q8IU85 whole entry, looked up): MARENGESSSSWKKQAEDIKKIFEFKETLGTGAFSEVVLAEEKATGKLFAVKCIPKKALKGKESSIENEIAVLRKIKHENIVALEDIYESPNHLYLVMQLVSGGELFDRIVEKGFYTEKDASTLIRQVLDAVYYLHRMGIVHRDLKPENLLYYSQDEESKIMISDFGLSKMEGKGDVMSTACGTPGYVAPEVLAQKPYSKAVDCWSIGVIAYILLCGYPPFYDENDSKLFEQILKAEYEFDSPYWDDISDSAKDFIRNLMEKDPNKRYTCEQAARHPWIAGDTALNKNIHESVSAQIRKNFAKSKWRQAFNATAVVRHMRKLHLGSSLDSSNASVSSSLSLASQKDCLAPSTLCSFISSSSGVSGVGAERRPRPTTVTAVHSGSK
Sequence of Microtubule-associated serine/threonine-protein kinase 3 (Homo sapiens) (O60307 whole entry): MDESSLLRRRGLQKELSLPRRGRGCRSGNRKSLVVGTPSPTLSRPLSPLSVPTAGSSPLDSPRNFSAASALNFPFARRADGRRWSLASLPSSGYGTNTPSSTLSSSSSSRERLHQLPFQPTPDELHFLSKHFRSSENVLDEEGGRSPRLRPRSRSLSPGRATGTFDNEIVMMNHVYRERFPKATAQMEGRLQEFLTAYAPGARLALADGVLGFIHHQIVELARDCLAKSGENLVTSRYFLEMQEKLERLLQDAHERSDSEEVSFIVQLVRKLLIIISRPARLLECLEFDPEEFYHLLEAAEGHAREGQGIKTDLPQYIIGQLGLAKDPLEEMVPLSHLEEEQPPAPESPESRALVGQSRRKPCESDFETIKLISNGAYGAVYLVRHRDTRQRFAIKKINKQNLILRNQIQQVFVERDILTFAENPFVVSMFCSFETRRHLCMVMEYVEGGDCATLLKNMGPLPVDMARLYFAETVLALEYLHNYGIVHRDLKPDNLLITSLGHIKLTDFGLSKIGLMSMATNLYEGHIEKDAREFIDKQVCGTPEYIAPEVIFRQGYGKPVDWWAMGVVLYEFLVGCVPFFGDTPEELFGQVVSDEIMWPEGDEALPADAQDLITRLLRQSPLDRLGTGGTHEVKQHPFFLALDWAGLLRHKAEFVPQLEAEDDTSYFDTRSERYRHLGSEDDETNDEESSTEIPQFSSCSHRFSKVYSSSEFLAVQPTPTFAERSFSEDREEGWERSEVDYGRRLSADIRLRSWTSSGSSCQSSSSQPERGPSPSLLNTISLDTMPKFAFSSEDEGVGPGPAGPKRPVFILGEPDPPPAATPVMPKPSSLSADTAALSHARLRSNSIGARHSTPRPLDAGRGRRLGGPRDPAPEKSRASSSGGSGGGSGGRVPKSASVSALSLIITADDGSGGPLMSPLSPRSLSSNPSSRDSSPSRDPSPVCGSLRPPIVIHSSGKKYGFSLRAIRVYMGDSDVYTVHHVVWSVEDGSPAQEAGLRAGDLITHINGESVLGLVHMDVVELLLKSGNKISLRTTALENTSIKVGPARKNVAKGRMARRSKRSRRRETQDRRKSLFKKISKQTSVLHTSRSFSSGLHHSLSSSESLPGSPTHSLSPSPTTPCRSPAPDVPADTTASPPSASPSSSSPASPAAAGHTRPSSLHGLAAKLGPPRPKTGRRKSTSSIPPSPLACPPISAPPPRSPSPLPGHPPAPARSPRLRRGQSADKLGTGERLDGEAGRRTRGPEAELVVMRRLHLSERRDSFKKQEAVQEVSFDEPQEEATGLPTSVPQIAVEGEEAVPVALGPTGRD
Sequence of Calcium/calmodulin-dependent protein kinase type II subunit gamma (Homo sapiens) (Q13555 whole entry): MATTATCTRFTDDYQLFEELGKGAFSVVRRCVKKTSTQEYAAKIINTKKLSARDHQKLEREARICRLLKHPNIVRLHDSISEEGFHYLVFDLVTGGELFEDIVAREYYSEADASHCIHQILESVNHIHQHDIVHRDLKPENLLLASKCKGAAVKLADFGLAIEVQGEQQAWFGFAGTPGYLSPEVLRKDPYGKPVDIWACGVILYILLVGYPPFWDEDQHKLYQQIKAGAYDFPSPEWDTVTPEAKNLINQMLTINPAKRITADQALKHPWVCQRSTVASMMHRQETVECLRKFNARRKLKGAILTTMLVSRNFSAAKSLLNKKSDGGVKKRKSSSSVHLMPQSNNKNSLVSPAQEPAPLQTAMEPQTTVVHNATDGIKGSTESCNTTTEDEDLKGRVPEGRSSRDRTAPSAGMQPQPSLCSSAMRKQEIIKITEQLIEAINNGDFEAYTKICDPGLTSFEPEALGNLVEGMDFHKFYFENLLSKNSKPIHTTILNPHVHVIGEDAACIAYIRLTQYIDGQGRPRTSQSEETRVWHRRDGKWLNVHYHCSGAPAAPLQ

## Cc1cc([C@@H](C)Nc2ccccc2C(=O)O)c2nc(N3CCOCC3)cc(=O)n2c1 [AZD-6482]
[1]
  % of control: 98%

## Cn1cc(-n2cnc3c(NCc4nc5cc(Cl)c(Cl)cc5[nH]4)nc(N4CCOCC4)nc32)cn1
[2]
  % of control: 2.81%

## Cc1cc(F)c(C(=O)Nc2cccc(-c3nncn3C(C)C)n2)cc1-n1cnc(C2CC2)c1
[3]
  % of control: 100%
[4]
  % of control: 93%

## C=CC(=O)Nc1cccc(C(=O)Nc2ccc(Nc3cc(-c4[nH]c(SC)nc4C)ccn3)cc2)c1
[5]; at 1 µM
  % of control: 85%
[5]; at 5 µM
  % of control: 53%

## CNC(=O)Nc1ccc(-c2nc(N3CC4CCC(C3)O4)c3cnn(C4CCC5(CC4)OCCO5)c3n2)cc1
[6]
  % of control: 97%

## C=CC(=O)Nc1ccc(C(=O)Nc2[nH]nc3c2CN(C(=O)N[C@H](CN(C)C)c2ccccc2)C3(C)C)cc1
[7]
  % of engagement: -0.8%
[8]
  % of engagement: -33.3%

Source: ChEMBL document CHEMBL5465560, “Selectivity Literature for EUbOPEN Chemogenomic Library” (2024)
